# Columns and labels:
# C. albicans (ATCC 10231) = assay: Microdilution MIC90, strain A; assay type: cell-based; settings: strain A; for MIC90: yeast, 24 h at 37 °C, triplicate
# C. krusei (ATCC 6258) = assay: Microdilution MIC90, strain B; assay type: cell-based; settings: for MIC90: yeast, 24 h at 37 °C, triplicate
# [1] = system: C. parapsilosis (ATCC 22019); assay: Microdilution MIC90, strain D; assay type: cell-based; settings: 24 h
# [2] = system: C. tropicalis (PTCC 5028); assay: Microdilution MIC90, strain E; assay type: cell-based; settings: 24 h
# [3] = system: Asp. nidulans (PTCC 5014); assay: Microdilution MIC90, strain F; assay type: cell-based, Aspergillus nidulans; settings: filamentous fungi, 48 h at 37 °C, triplicate
# [4] = system: Asp. flavus (ATCC 204304); assay: Microdilution MIC90, strain G; assay type: cell-based, Aspergillus flavus; settings: filamentous fungi, 48 h at 37 °C, triplicate
# [5] = system: Asp. fumigatus (PTCC 5009); assay: Microdilution MIC90, strain H; assay type: cell-based; settings: filamentous fungi, 48 h at 37 °C, triplicate
# Asp. niger (PTCC 5154) = assay: Microdilution MIC90, strain I; assay type: cell-based, Aspergillus niger; settings: filamentous fungi, 48 h at 37 °C, triplicate
# Asp. terreus (PTCC 5023) = assay: Microdilution MIC90, strain J; assay type: cell-based, Aspergillus terreus; settings: Aspergillus terreus, PTCC5023, 48 h, filamentous fungi, 48 h at 37 °C, triplicate
# T. rubrum (PTCC 5143) = assay: Microdilution MIC90, strain K; assay type: cell-based, Trichophyton rubrum; settings: filamentous fungi, 48 h at 37 °C, triplicate
# [6] = system: T. mentagrophytes (PTCC 5054); assay: Microdilution MIC90, strain M; assay type: cell-based; settings: Trichophyton mentagrophytes, PTCC5054, 48 h
# [7] = system: T. schoenleinii (PTCC 5221); assay: Microdilution MIC90, strain N; assay type: cell-based; settings: Trichophyton schoenleinii, PTCC5221, 48 h
# M. canis (PTCC 5069) = assay: Microdilution MIC90, strain O; assay type: cell-based; settings: Microsporum canis, PTCC5069, 48 h
# C. glabrata (ATCC 90030) = assay: Microdilution MIC90, strain C; assay type: cell-based; settings: 24 h, yeast, 24 h at 37 °C, triplicate
# [8] = system: Microsporum gypseum (PTCC 5070); assay: Microdilution MIC90, strain L; assay type: cell-based; settings: filamentous fungi, 48 h at 37 °C, triplicate
# [9] = Aspergillus nidulans, PTCC5014, 48 h
# [10] = Aspergillus flavus, ATCC204304, 48 h
# [11] = Aspergillus fumigatus, PTCC5009, 48 h
# [12] = Aspergillus niger, PTCC5154, 48 h
# [13] = Trichophyton rubrum, PTCC5143, 48 h
SMILES,MIC90 (C. albicans (ATCC 10231); 24 h),MIC90 (C. krusei (ATCC 6258); 24 h),MIC90 [1],MIC90 [2],"MIC90 [3, 9]","MIC90 [4, 10]","MIC90 [5, 11]",MIC90 (Asp. niger (PTCC 5154); [12]),MIC90 (Asp. terreus (PTCC 5023)),MIC90 (T. rubrum (PTCC 5143); [13]),MIC90 [6],MIC90 [7],MIC90 (M. canis (PTCC 5069)),MIC90 (C. glabrata (ATCC 90030)),MIC90 [3],MIC90 [4],further results
"O=C(Nc1ccc(Cl)cc1)Nc1nnc(SCC(O)(Cn2cncn2)c2ccc(F)cc2F)s1 (stereo not shown) [Compound 8a, 1-(4-Chlorophenyl)-3-(5-((2-(2,4-difluorophenyl)-2-hydroxy-3-(1H-1,2,4-triazol-1-yl)propyl)thio)-1,3,4-thiadiazol-2-yl)urea]",32 µg/mL,1 to 16 µg/mL,8 µg/mL,32 µg/mL,16 µg/mL,8 µg/mL,2 to 4 µg/mL,2 to 4 µg/mL,8 µg/mL,2 µg/mL,16 µg/mL,8 µg/mL,2 µg/mL,–,–,–,MIC90 (C. krusei (ATCC 6258)): 1 μg·mL^–1; MIC90 [5]: 1 μg·mL^–1; MIC90 (Asp. niger (PTCC 5154)): 4 μg·mL^–1
"O=C(Nc1ccc(Br)cc1)Nc1nnc(SCC(O)(Cn2cncn2)c2ccc(F)cc2F)s1 (stereo not shown) [Compound 8d, 1-(4-Bromophenyl)-3-(5-((2-(2,4-difluorophenyl)-2-hydroxy-3-(1H-1,2,4-triazol-1-yl)propyl)thio)-1,3,4-thiadiazol-2-yl)urea]",32 µg/mL,–,8 µg/mL,32 µg/mL,2 to 4 µg/mL,8 µg/mL,64 µg/mL,64 µg/mL,32 µg/mL,4 µg/mL,32 µg/mL,32 µg/mL,64 µg/mL,32 µg/mL,4 μg·mL^–1,–,–
"Cc1ccc(NC(=O)Nc2nnc(SCC(O)(Cn3cncn3)c3ccc(F)cc3F)s2)cc1 (stereo not shown) [Compound 8e, 1-(5-((2-(2,4-Difluorophenyl)-2-hydroxy-3-(1H-1,2,4-triazol-1-yl)propyl)thio)-1,3,4-thiadiazol-2-yl)-3-(p-tolyl)urea]",0.5 µg/mL,0.5 µg/mL,8 µg/mL,16 µg/mL,2 to 4 µg/mL,8 µg/mL,16 µg/mL,16 µg/mL,16 µg/mL,8 µg/mL,32 µg/mL,8 µg/mL,16 µg/mL,–,4 μg·mL^–1,–,fold greater potency than that of FLC (C. albicans (ATCC 10231); from MIC values): 32 fold; MIC90 (C. albicans (ATCC 10231)): 1 μg·mL^–1; fold greater potency than that of FLC (C. krusei (ATCC 6258); from MIC values): 32 fold; MIC90 (C. krusei (ATCC 6258)): 1 μg·mL^–1; MIC90 [8]: 2 μg·mL^–1
"O=C(Nc1cccc(Cl)c1)Nc1nnc(SCC(O)(Cn2cncn2)c2ccc(F)cc2F)s1 (stereo not shown) [Compound 8f, 1-(3-Chlorophenyl)-3-(5-((2-(2,4-difluorophenyl)-2-hydroxy-3-(1H-1,2,4-triazol-1-yl)propyl)thio)-1,3,4-thiadiazol-2-yl)urea]",4 µg/mL,–,8 µg/mL,–,2 to 4 µg/mL,2 to 4 µg/mL,–,–,–,2 µg/mL,–,–,–,–,4 μg·mL^–1,4 μg·mL^–1,MIC90 [8]: 4 μg·mL^–1
"COc1cccc(NC(=O)Nc2nnc(SCC(O)(Cn3cncn3)c3ccc(F)cc3F)s2)c1 (stereo not shown) [Compound 8h, 1-(5-((2-(2,4-Difluorophenyl)-2-hydroxy-3-(1H-1,2,4-triazol-1-yl)propyl)thio)-1,3,4-thiadiazol-2-yl)-3-(3-methoxyphenyl)urea]",16 µg/mL,8 µg/mL,4 µg/mL,16 µg/mL,2 to 4 µg/mL,8 µg/mL,16 µg/mL,8 µg/mL,16 µg/mL,2 µg/mL,16 µg/mL,32 µg/mL,32 µg/mL,–,4 μg·mL^–1,–,–
"Cc1cccc(NC(=O)Nc2nnc(SCC(O)(Cn3cncn3)c3ccc(F)cc3F)s2)c1 (stereo not shown) [Compound 8i, 1-(5-((2-(2,4-Difluorophenyl)-2-hydroxy-3-(1H-1,2,4-triazol-1-yl)propyl)thio)-1,3,4-thiadiazol-2-yl)-3-(m-tolyl)urea]",8 µg/mL,16 µg/mL,8 µg/mL,8 µg/mL,2 to 4 µg/mL,2 to 4 µg/mL,8 µg/mL,16 µg/mL,32 µg/mL,16 µg/mL,16 µg/mL,8 µg/mL,16 µg/mL,32 µg/mL,2 μg·mL^–1,2 μg·mL^–1,–
"O=C(Nc1cccc(C(F)(F)F)c1)Nc1nnc(SCC(O)(Cn2cncn2)c2ccc(F)cc2F)s1 (stereo not shown) [Compound 8j, 1-(5-((2-(2,4-Difluorophenyl)-2-hydroxy-3-(1H-1,2,4-triazol-1-yl)propyl)thio)-1,3,4-thiadiazol-2-yl)-3-(3-(trifluoromethyl)phenyl)urea]",–,32 µg/mL,8 µg/mL,16 µg/mL,16 µg/mL,16 µg/mL,16 µg/mL,32 µg/mL,32 µg/mL,8 µg/mL,16 µg/mL,16 µg/mL,16 µg/mL,32 µg/mL,–,–,–
"O=C(Nc1nnc(SCC(O)(Cn2cncn2)c2ccc(F)cc2F)s1)Nc1ccccc1C(F)(F)F (stereo not shown) [Compound 8k, 1-(5-((2-(2,4-Difluorophenyl)-2-hydroxy-3-(1H-1,2,4-triazol-1-yl)propyl)thio)-1,3,4-thiadiazol-2-yl)-3-(2-(trifluoromethyl)phenyl)urea]",–,–,4 µg/mL,16 µg/mL,2 to 4 µg/mL,2 to 4 µg/mL,16 µg/mL,16 µg/mL,16 µg/mL,8 µg/mL,32 µg/mL,16 µg/mL,16 µg/mL,16 µg/mL,4 μg·mL^–1,2 μg·mL^–1,–
"O=C(Nc1nnc(SCC(O)(Cn2cncn2)c2ccc(F)cc2F)s1)Nc1ccccc1Cl (stereo not shown) [Compound 8l, 1-(2-Chlorophenyl)-3-(5-((2-(2,4-difluorophenyl)-2-hydroxy-3-(1H-1,2,4-triazol-1-yl)propyl)thio)-1,3,4-thiadiazol-2-yl)urea]",–,–,8 µg/mL,–,8 µg/mL,2 to 4 µg/mL,–,–,–,–,–,–,–,–,–,4 μg·mL^–1,–
"O=C(Nc1nnc(SCC(O)(Cn2cncn2)c2ccc(F)cc2F)s1)Nc1ccccc1Br (stereo not shown) [Compound 8m, 1-(2-Bromophenyl)-3-(5-((2-(2,4-difluorophenyl)-2-hydroxy-3-(1H-1,2,4-triazol-1-yl)propyl)thio)-1,3,4-thiadiazol-2-yl)urea]",32 µg/mL,–,16 µg/mL,8 µg/mL,8 µg/mL,8 µg/mL,32 µg/mL,32 µg/mL,16 µg/mL,2 to 4 µg/mL,32 µg/mL,64 µg/mL,64 µg/mL,16 µg/mL,–,–,MIC90 (T. rubrum (PTCC 5143)): 4 μg·mL^–1
"Cc1ccccc1NC(=O)Nc1nnc(SCC(O)(Cn2cncn2)c2ccc(F)cc2F)s1 (stereo not shown) [Compound 8n, 1-(5-((2-(2,4-Difluorophenyl)-2-hydroxy-3-(1H-1,2,4-triazol-1-yl)propyl)thio)-1,3,4-thiadiazol-2-yl)-3-(o-tolyl)urea]",–,–,–,–,2 to 4 µg/mL,8 µg/mL,–,–,–,–,–,–,–,–,4 μg·mL^–1,–,–
"O=C(Nc1nnc(SCC(O)(Cn2cncn2)c2ccc(F)cc2F)s1)Nc1ccc(F)cc1F (stereo not shown) [Compound 8p, 1-(2,4-Difluorophenyl)-3-(5-((2-(2,4-difluorophenyl)-2-hydroxy-3-(1H-1,2,4-triazol-1-yl)propyl)thio)-1,3,4-thiadiazol-2-yl)urea]",–,–,8 µg/mL,32 µg/mL,8 µg/mL,2 to 4 µg/mL,–,–,16 µg/mL,16 µg/mL,16 µg/mL,16 µg/mL,16 µg/mL,32 µg/mL,–,4 μg·mL^–1,MIC90 [8]: 4 μg·mL^–1
"O=C(Nc1ccc(Cl)c(Cl)c1)Nc1nnc(SCC(O)(Cn2cncn2)c2ccc(F)cc2F)s1 (stereo not shown) [Compound 8q, 1-(3,4-Dichlorophenyl)-3-(5-((2-(2,4-difluorophenyl)-2-hydroxy-3-(1H-1,2,4-triazol-1-yl)propyl)thio)-1,3,4-thiadiazol-2-yl)urea]",32 µg/mL,–,4 µg/mL,16 µg/mL,8 µg/mL,8 µg/mL,32 µg/mL,32 µg/mL,8 µg/mL,2 to 4 µg/mL,16 µg/mL,16 µg/mL,16 µg/mL,–,–,–,MIC90 (T. rubrum (PTCC 5143)): 4 μg·mL^–1

# — paper PMC8482776 (ACS Omega, 2021)
